# Test results: US20250230165A1, “HETEROCYCLIC COMPOUNDS FOR USE IN THE TREATMENT OF CANCER” (ARTIOS PHARMA LIMITED, priority 2021, published 2025)
# Target: T1, Human Polθ polymerase domain (aa1820-2590) (Homo sapiens, UniProt O75417)
# T1 construct: Human Polθ polymerase domain (aa1820-2590) was expressed in E. coli; made in house; host or cells: E. coli
# T1 sequence (O75417 1820-2590): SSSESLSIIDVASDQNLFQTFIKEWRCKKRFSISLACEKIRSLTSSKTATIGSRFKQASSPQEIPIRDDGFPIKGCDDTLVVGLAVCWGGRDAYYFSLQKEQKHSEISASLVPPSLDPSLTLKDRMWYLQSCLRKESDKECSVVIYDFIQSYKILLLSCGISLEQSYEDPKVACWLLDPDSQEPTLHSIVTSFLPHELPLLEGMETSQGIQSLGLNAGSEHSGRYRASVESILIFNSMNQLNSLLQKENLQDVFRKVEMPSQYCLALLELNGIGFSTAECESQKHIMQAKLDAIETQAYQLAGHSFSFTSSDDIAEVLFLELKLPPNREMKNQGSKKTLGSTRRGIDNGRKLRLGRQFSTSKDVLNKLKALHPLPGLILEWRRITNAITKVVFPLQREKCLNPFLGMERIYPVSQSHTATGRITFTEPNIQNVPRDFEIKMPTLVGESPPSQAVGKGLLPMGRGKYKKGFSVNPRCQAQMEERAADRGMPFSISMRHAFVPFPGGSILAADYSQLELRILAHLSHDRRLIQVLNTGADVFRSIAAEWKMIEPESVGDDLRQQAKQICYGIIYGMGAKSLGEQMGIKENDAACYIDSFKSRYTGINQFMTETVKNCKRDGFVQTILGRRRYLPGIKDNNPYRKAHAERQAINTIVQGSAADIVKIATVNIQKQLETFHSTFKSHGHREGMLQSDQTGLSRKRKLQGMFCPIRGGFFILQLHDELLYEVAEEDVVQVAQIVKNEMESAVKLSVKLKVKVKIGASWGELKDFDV
# Test: Polθ Polymerase Domain Kinact/KI Assay (PicoGreen)
# Type: biochemical
# Conditions: 0.8 nM Polθ, 100 nM DNA substrate, kobs vs [I] fit for 2-step covalent inhibitor
# Summary of the method: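 Covalent inhibitors were tested against E. coli-expressed enzyme (0.8 nM final) with 100 nM annealed DNA substrate and […] in Tris pH 7.5 buffer, 1% DMSO. Reactions were EDTA-quenched over a 0–60 min time course and product DNA detected by PicoGreen fluorescence.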
row,Structure (SMILES),Kinact/Kl [M⁻¹ s⁻¹]
1,"C=CC(=O)N1CC2(C1)CN(C(=O)CN1C[C@H]3CC(=O)N(c4cc(C(F)(F)F)cc(C)n4)[C@@H]3C(=O)N(C)c3cccc(F)c31)c1nccn12 [Example 106, (3aR,11aS)-5-(2-(1-acryloylspiro[azetidine-3,3′-imidazo[1,2-a]imidazo]-1′(2′H)-yl)ethyl)-6-fluoro-10-methyl-1-(6-methyl-4-(trifluoromethyl)pyridin-2-yl)-1,3a,4,5,10,11a-hexahydro-2H-benzo[b]pyrrolo[2,3-f][1,4]diazocine-2,11(3H)-dione]",1.14e+06
2,"C=CC(=O)N1CC(c2nc(CN3C[C@H]4CC(=O)N(c5cc(C(F)(F)F)cc(C)n5)[C@@H]4C(=O)N(C)c4cccc(F)c43)c[nH]2)C1 [Example 122, (3aR,11aS)-5-((2-(1-acryloylazetidin-3-yl)-1H-imidazol-4-yl)methyl)-6-fluoro-10-methyl-1-(6-methyl-4-(trifluoromethyl)pyridin-2-yl)-1,3a,4,5,10,11a-hexahydro-2H-benzo[b]pyrrolo[2,3-f][1,4]diazocine-2,11(3H)-dione]",610000
3,"C=CC(=O)N1CCN(c2nc(CN3C[C@H]4CC(=O)N(c5cc(C(F)(F)F)cc(C)n5)[C@@H]4C(=O)N(C)c4cccc(F)c43)co2)CC1 [Example 124, (3aR,11aS)-5-((2-(4-acryloylpiperazin-1-yl)oxazol-4-yl)methyl)-6-fluoro-10-methyl-1-(6-methyl-4-(trifluoromethyl)pyridin-2-yl)-1,3a,4,5,10,11a-hexahydro-2H-benzo[b]pyrrolo[2,3-f][1,4]diazocine-2,11(3H)-dione]",11000
4,"C=CC(=O)N1CC(c2cccc(CN3C[C@H]4CC(=O)N(c5cc(C(F)(F)F)cc(C)n5)[C@@H]4C(=O)N(C)c4cccc(F)c43)c2)C1 [Example 127, (3aR,11aS)-5-(3-(1-acryloylazetidin-3-yl)benzyl)-6-fluoro-10-methyl-1-(6-methyl-4-(trifluoromethyl)pyridin-2-yl)-1,3a,4,5,10,11a-hexahydro-2H-benzo[b]pyrrolo[2,3-f][1,4]diazocine-2,11(3H)-dione]",650000
5,"C=CC(=O)N1CC(c2cccc(CN3C[C@H]4CC(=O)N(c5cc(C(F)(F)F)cc(C)n5)[C@@H]4C(=O)N(C)c4cccc(F)c43)n2)C1 [Example 128, (3aR,11aS)-5-((6-(1-acryloylazetidin-3-yl)pyridin-2-yl)methyl)-6-fluoro-10-methyl-1-(6-methyl-4-(trifluoromethyl)pyridin-2-yl)-1,3a,4,5,10,11a-hexahydro-2H-benzo[b]pyrrolo[2,3-f][1,4]diazocine-2,11(3H)-dione]",660000
6,"C=CC(=O)N1CC(c2nccc(CN3C[C@H]4CC(=O)N(c5cc(C(F)(F)F)cc(C)n5)[C@@H]4C(=O)N(C)c4cccc(F)c43)n2)C1 [Example 129, (3aR,11aS)-5-((2-(1-acryloylazetidin-3-yl)pyrimidin-4-yl)methyl)-6-fluoro-10-methyl-1-(6-methyl-4-(trifluoromethyl)pyridin-2-yl)-1,3a,4,5,10,11a-hexahydro-2H-benzo[b]pyrrolo[2,3-f][1,4]diazocine-2,11(3H)-dione]",400000
7,"C=CC(=O)N1Cc2ccc(CN3C[C@H]4CC(=O)N(c5cc(C(F)(F)F)cc(C)n5)[C@@H]4C(=O)N(C)c4cccc(F)c43)cc2C1 [Example 130, (3aR,11aS)-5-((2-acryloylisoindolin-5-yl)methyl)-6-fluoro-10-methyl-1-(6-methyl-4-(trifluoromethyl)pyridin-2-yl)-1,3a,4,5,10,11a-hexahydro-2H-benzo[b]pyrrolo[2,3-f][1,4]diazocine-2,11(3H)-dione]",710000

# Second part, the compound after the results:
row,Kinact/Kl [M⁻¹ s⁻¹],Structure (SMILES)
1,2.49e+06,"C=CC(=O)N1CC2(CN(CCN3C[C@H]4CC(=O)N(c5cc(C(F)(F)F)cc(C)n5)[C@@H]4C(=O)N(C)c4cccc(Cl)c43)CC(=O)N2C)C1 [Example 111, (3aR,11aS)-5-(2-(2-acryloyl-5-methyl-6-oxo-2,5,8-triazaspiro[3.5]nonan-8-yl)ethyl)-6-chloro-10-methyl-1-(6-methyl-4-(trifluoromethyl)pyridin-2-yl)-1,3a,4,5,10,11a-hexahydro-2H-benzo[b]pyrrolo[2,3-f][1,4]diazocine-2,11(3H)-dione]"
2,920000,"C=CC(=O)N1CC(N2CCN(CCN3C[C@H]4CC(=O)N(c5cc(C(F)(F)F)cc(C)n5)[C@@H]4C(=O)N(C)c4cccc(Cl)c43)CC2=O)C1 [Example 112, (3aR,11aS)-5-(2-(4-(1-acryloylazetidin-3-yl)-3-oxopiperazin-1-yl)ethyl)-6-chloro-10-methyl-1-(6-methyl-4-(trifluoromethyl)pyridin-2-yl)-1,3a,4,5,10,11a-hexahydro-2H-benzo[b]pyrrolo[2,3-f][1,4]diazocine-2,11(3H)-dione]"
3,580000,"C=CC(=O)N1CC2(CN(CCN3C[C@H]4CC(=O)N(c5cc(C(F)(F)F)cc(C)n5)[C@@H]4C(=O)N(C)c4cccc(C)c43)CCN2)C1 [Example 114, (3aR,11aS)-5-(2-(2-acryloyl-2,5,8-triazaspiro[3.5]nonan-8-yl)ethyl)-6,10-dimethyl-1-(6-methyl-4-(trifluoromethyl)pyridin-2-yl)-1,3a,4,5,10,11a-hexahydro-2H-benzo[b]pyrrolo[2,3-f][1,4]diazocine-2,11(3H)-dione]"
4,2.35e+06,"C=CC(=O)N1CC(N2CCN(CCN3C[C@H]4CC(=O)N(c5cc(C(F)(F)F)cc(C)n5)[C@@H]4C(=O)N(C)c4cccc(C)c43)CC2)C1 [Example 115, (3aR,11aS)-5-(2-(4-(1-acryloylazetidin-3-yl)piperazin-1-yl)ethyl)-6,10-dimethyl-1-(6-methyl-4-(trifluoromethyl)pyridin-2-yl)-1,3a,4,5,10,11a-hexahydro-2H-benzo[b]pyrrolo[2,3-f][1,4]diazocine-2,11(3H)-dione]"
5,890000,"C=CC(=O)N1CC(n2ccc(CN3C[C@H]4CC(=O)N(c5cc(C(F)(F)F)cc(C)n5)[C@@H]4C(=O)N(C)c4cccc(F)c43)n2)C1 [Example 120, (3aR,11aS)-5-((1-(1-acryloylazetidin-3-yl)-1H-pyrazol-3-yl)methyl)-6-fluoro-10-methyl-1-(6-methyl-4-(trifluoromethyl)pyridin-2-yl)-1,3a,4,5,10,11a-hexahydro-2H-benzo[b]pyrrolo[2,3-f][1,4]diazocine-2,11(3H)-dione]"
6,540000,"C=CC(=O)N1CC(n2cc(CN3C[C@H]4CC(=O)N(c5cc(C(F)(F)F)cc(C)n5)[C@@H]4C(=O)N(C)c4cccc(F)c43)cn2)C1 [Example 121, (3aR,11aS)-5-((1-(1-acryloylazetidin-3-yl)-1H-pyrazol-4-yl)methyl)-6-fluoro-10-methyl-1-(6-methyl-4-(trifluoromethyl)pyridin-2-yl)-1,3a,4,5,10,11a-hexahydro-2H-benzo[b]pyrrolo[2,3-f][1,4]diazocine-2,11(3H)-dione]"
7,270000,"C=CC(=O)N1CC(n2cnc(CN3C[C@H]4CC(=O)N(c5cc(C(F)(F)F)cc(C)n5)[C@@H]4C(=O)N(C)c4cccc(F)c43)n2)C1 [Example 123, (3aR,11aS)-5-((1-(1-acryloylazetidin-3-yl)-1H-1,2,4-triazol-3-yl)methyl)-6-fluoro-10-methyl-1-(6-methyl-4-(trifluoromethyl)pyridin-2-yl)-1,3a,4,5,10,11a-hexahydro-2H-benzo[b]pyrrolo[2,3-f][1,4]diazocine-2,11(3H)-dione]"
8,2.53e+06,"C=CC(=O)N1CCN(c2nc(CN3C[C@H]4CC(=O)N(c5cc(C(F)(F)F)cc(C)n5)[C@@H]4C(=O)N(C)c4cccc(F)c43)c[nH]2)CC1 [Example 125, (3aR,11aS)-5-((2-(4-acryloylpiperazin-1-yl)-1H-imidazol-4-yl)methyl)-6-fluoro-10-methyl-1-(6-methyl-4-(trifluoromethyl)pyridin-2-yl)-1,3a,4,5,10,11a-hexahydro-2H-benzo[b]pyrrolo[2,3-f][1,4]diazocine-2,11(3H)-dione]"
9,460000,"C=CC(=O)N1CCC(n2cnc(CN3C[C@H]4CC(=O)N(c5cc(C(F)(F)F)cc(C)n5)[C@@H]4C(=O)N(C)c4cccc(F)c43)n2)CC1 [Example 126, (3aR,11aS)-5-((1-(1-acryloylpiperidin-4-yl)-1H-1,2,4-triazol-3-yl)methyl)-6-fluoro-10-methyl-1-(6-methyl-4-(trifluoromethyl)pyridin-2-yl)-1,3a,4,5,10,11a-hexahydro-2H-benzo[b]pyrrolo[2,3-f][1,4]diazocine-2,11(3H)-dione]"
